Patent publication US10793565B2, “Heterocyclic compounds as immunomodulators” (Incyte Corporation, priority 2016, dated 2020)

Target: PD-1/PD-L1 protein/protein interaction (Homo sapiens (Human), UniProt Q9NZQ7)
Assay: PD-1/PD-L1 Homogeneous Time-Resolved Fluorescence (HTRF) binding assay
Conditions: recombinant human PD-L1 (19-238) His-tag, human PD-1 (25-167) Fc tag; 25° C., PBS pH 7.4
Description: Example A. PD-1/PD-L1 Homogeneous Time-Resolved Fluorescence (HTRF) Binding Assay
The assays were conducted in a standard black 384-well polystyrene plate with a final volume of 20 μL. Inhibitors were first serially diluted in DMSO and then added to the plate wells before the addition of other reaction components. The final concentration of DMSO in the assay was 1%. The assays were carried out at 25° C. in the PBS buffer (pH 7.4) with 0.05% Tween-20 and 0.1% BSA. Recombinant human PD-L1 protein (19-238) with a His-tag at the C-terminus was purchased from AcroBiosystems (PD1-H5229). Recombinant human PD-1 protein (25-167) with Fc tag at the C-terminus was also purchased from AcroBiosystems (PD1-H5257). PD-L1 and PD-1 proteins were diluted in the assay buffer and 10 μL was added to the plate well. Plates were centrifuged and proteins were preincubated with inhibitors for 40 minutes. The incubation was followed by the addition of 10 μL of HTRF detection buffer supplemented with Europium cryptate-labeled anti-human IgG (PerkinElmer-AD0212) specific for Fc and anti-His antibody conjugated to SureLight®-Allophycocyanin (APC, PerkinElmer-AD0059H). After centrifugation, the plate was incubated at 25° C. for 60 min. before reading on a PHERAstar FS plate reader (665 nm/620 nm ratio). Final concentrations in the assay were […], 10 nM PD-L1, 1 nM europium anti-human IgG and 20 nM anti-His-Allophycocyanin. IC50 determination was performed by fitting the curve of percent control activity versus the log of the inhibitor concentration using the GraphPad Prism 5.0 software.

Sequence of PD-1/PD-L1 protein/protein interaction (Q9NZQ7 19-238): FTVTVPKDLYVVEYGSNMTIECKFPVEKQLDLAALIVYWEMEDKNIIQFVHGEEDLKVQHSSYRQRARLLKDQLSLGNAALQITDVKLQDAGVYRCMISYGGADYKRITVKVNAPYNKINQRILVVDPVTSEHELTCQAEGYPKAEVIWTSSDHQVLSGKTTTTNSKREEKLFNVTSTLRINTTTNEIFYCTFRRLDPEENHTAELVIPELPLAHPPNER

SMILES	IC50 [nM]
Cc1c(NC(=O)c2ccc(CNCCO)cn2)cccc1-c1cccc(-c2nc3c(Cl)cc(CNCCO)cn3n2)c1C [Example 1, N-(3′-(8-chloro-6-((2-hydroxyethylamino)methyl)-[1,2,4]triazolo[1,5-a]pyridin-2-yl)-2,2′-dimethylbiphenyl-3-yl)-5-((2-hydroxyethylamino)methyl)picolinamide]	≤ 10
Cc1c(-c2nc3c(Cl)cc(CNCCO)cn3n2)cccc1-c1cccc(NC(=O)c2ccc(CNCCO)cn2)c1Cl [Example 2, N-(2-chloro-3′-(8-chloro-6-((2-hydroxyethylamino)methyl)-[1,2,4]triazolo[1,5-a]pyridin-2-yl)-2′-methylbiphenyl-3-yl)-5-((2-hydroxyethylamino)methyl)picolinamide]	≤ 10
Cc1c(-c2nc3c(C#N)cc(CNCCO)cn3n2)cccc1-c1cccc(NC(=O)c2ccc(CNCCO)cn2)c1Cl [Example 3, N-(2-chloro-3′-(8-cyano-6-((2-hydroxyethylamino)methyl)-[1,2,4]triazolo[1,5-a]pyridin-2-yl)-2′-methylbiphenyl-3-yl)-5-((2-hydroxyethylamino)methyl)picolinamide]	≤ 10
Cc1c(-c2nc3c(Cl)cc(CNCCO)cn3n2)cccc1-c1cccc(-c2nc3c(s2)CNCC3)c1C [Example 4, 2-((8-chloro-2-(2,2′-dimethyl-3′-(4,5,6,7-tetrahydrothiazolo[5,4-c]pyridin-2-yl)biphenyl-3-yl)-[1,2,4]triazolo[1,5-a]pyridin-6-yl)methylamino)ethanol]	≤ 10
